Measurements as given in patent US12570642B2, “GLP-IR modulating compounds” (Gilead Sciences, Inc., priority 2021, dated 2026).

Biological target: GLP-1R (Homo sapiens, UniProt P43220)
Assay: GLP-1R Activation - cAMP Assay
Type: cell-based
Settings: each compound run on one of the two cAMP assays (Assay 1 or Assay 2, not specified)
Procedure, shortened: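 cAMP rise read by HTRF after 30 min agonist exposure (10-point titration, 37 °C) in HBSS/20 mM Hepes/0.1% BSA, following 1 h pre-incubation. Cells: stable GLP-1R CHO line, 1,000/well, seeded overnight. Sigmoidal fit of response vs log concentration gives EC50.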

[1] = cAMP increase in CHO cells stably expressing GLP-1R

Chain of GLP-1R (P43220 24-463): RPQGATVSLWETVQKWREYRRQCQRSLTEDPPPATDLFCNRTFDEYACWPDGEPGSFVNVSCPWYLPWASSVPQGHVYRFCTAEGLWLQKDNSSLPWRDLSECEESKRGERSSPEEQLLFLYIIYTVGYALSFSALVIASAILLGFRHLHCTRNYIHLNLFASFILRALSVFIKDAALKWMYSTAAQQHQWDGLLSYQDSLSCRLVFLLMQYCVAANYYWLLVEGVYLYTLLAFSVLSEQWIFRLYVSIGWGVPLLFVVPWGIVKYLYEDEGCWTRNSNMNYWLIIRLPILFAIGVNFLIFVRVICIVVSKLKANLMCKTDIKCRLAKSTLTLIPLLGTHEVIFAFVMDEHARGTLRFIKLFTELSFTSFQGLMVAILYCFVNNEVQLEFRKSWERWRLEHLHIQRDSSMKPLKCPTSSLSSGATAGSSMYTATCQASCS

| SMILES | EC50 [1] [nM] | EC50 ([…]) [nM] |
| --- | --- | --- |
| CC1(C)COC[C@H]1n1c(Cc2cc(F)c(-c3cccc(OCc4ccc(-n5cncn5)cc4)n3)cc2F)nc2ccc(C(=O)O)cc21 [Example 448, (S)-2-(4-(6-((4-(1H-1,2,4-triazol-1-yl)benzyl)oxy)pyridin-2-yl)-2,5-difluorobenzyl)-1-(4,4-dimethyltetrahydrofuran-3-yl)-1H-benzo[d]imidazole-6-carboxylic acid] | 0.352 |  |
| CC1(C)COC[C@H]1n1c(Cc2cc(F)c(-c3ccc(F)c(OCc4cnc(-n5ccnn5)cc4Cl)c3)cc2F)nc2ccc(C(=O)O)cc21 [Example 388, (S)-2-((3′-((4-chloro-6-(1H-1,2,3-triazol-1-yl)pyridin-3-yl)methoxy)-2,4′,5-trifluoro-[1,1′-biphenyl]-4-yl)methyl)-1-(4,4-dimethyltetrahydrofuran-3-yl)-1H-benzo[d]imidazole-6-carboxylic acid] | 0.053 |  |
| CC1(C)COCC1n1c(Cc2cc(F)c(-c3ccnc(OCc4ccc(C(F)F)cc4F)n3)cc2Cl)nc2c(F)cc(C(=O)O)cc21 (stereo not drawn) [Example 344, 2-(2-chloro-4-(2-((4-(difluoromethyl)-2-fluorobenzyl)oxy)pyrimidin-4-yl)-5-fluorobenzyl)-1-(4,4-dimethyltetrahydrofuran-3-yl)-4-fluoro-1H-benzo[d]imidazole-6-carboxylic acid] | 0.147 |  |
| C[C@@H]1COC[C@H]1n1c(Cc2cc(F)c(-c3cccc(OCc4ccc(C#N)cc4F)n3)cc2F)nc2ccc(C(=O)O)cc21 (racemic) [Example 266, 2-(4-(6-((4-cyano-2-fluorobenzyl)oxy)pyridin-2-yl)-2,5-difluorobenzyl)-1-((3S,4S)-4-methyltetrahydrofuran-3-yl)-1H-benzo[d]imidazole-6-carboxylic acid] | 0.363 |  |
| CC1(C)COCC1n1c(Cc2cc(F)c(-c3cccc(OCc4ccc(C(F)(F)F)cc4F)n3)cc2F)nc2c(F)cc(C(=O)O)cc21 (stereo not drawn) [Example 175, 2-(2,5-difluoro-4-(6-((2-fluoro-4-(trifluoromethyl)benzyl)oxy)pyridin-2-yl)benzyl)-1-(4,4-dimethyltetrahydrofuran-3-yl)-4-fluoro-1H-benzo[d]imidazole-6-carboxylic Acid] | 0.106 |  |
| COCCn1c(C(F)c2cc(F)c(-c3cccc(OCc4ccc(C#N)cc4F)n3)cc2F)nc2ccc(C(=O)O)cc21 (stereo not drawn) [Example 51] | 0.83 |  |
| COCCn1c(Cc2cc(F)c(-c3cccc(OCc4ccc(Cl)cc4)n3)cc2Cl)nc2c(F)cc(C(=O)O)cc21 [Example 255, 2-(2-chloro-4-(6-((4-chlorobenzyl)oxy)pyridin-2-yl)-5-fluorobenzyl)-4-fluoro-1-(2-methoxyethyl)-1H-benzo[d]imidazole-6-carboxylic acid] | 0.108 |  |
| CC(Cn1c(Cc2cc(F)c(-c3cccc(OCc4ccc(C#N)cc4F)n3)cc2F)nc2ccc(C(=O)O)cc21)OC(F)F (stereo not drawn) [Example 22, 2-(4-(6-((4-cyano-2-fluorobenzyl)oxy)pyridin-2-yl)-2,5-difluorobenzyl)-1-(2-(difluoromethoxy)propyl)-1H-benzo[d]imidazole-6-carboxylic Acid] | 0.72 |  |
| CC1(C)CC(n2c(Cc3cc(F)c(-c4cccc(OCc5ccc(C#N)cc5F)n4)cc3F)nc3ccc(C(=O)O)cc32)C(C)(C)O1 (stereo not drawn) [Example 199, 2-(4-(6-((4-cyano-2-fluorobenzyl)oxy)pyridin-2-yl)-2,5-difluorobenzyl)-1-(2,2,5,5-tetramethyltetrahydrofuran-3-yl)-1H-benzo[d]imidazole-6-carboxylic acid] | 90.9 |  |
| Cc1ncc(-c2ccc(COc3cccc(-c4cc(F)c(Cc5nc6ccc(C(=O)O)cc6n5[C@@H]5COCC5(C)C)cc4F)n3)c(F)c2)s1 [Example 444, (S)-2-(2,5-difluoro-4-(6-((2-fluoro-4-(2-methylthiazol-5-yl)benzyl)oxy)pyridin-2-yl)benzyl)-1-(4,4-dimethyltetrahydrofuran-3-yl)-1H-benzo[d]imidazole-6-carboxylic acid] | 0.365 |  |
| CO[C@H]1COC[C@H]1n1c(Cc2cc(F)c(-c3cccc(OCc4ccc(C#N)cc4F)n3)cc2F)nc2ccc(C(=O)O)cc21 (single isomer, unassigned) [Example 276] | 0.108 |  |
| Cc1cc(Cc2nc3ccc(C(=O)O)cc3n2[C@@H]2COCC2(C)C)c(F)cc1-c1ccnc(OCc2ccc(Cl)cc2F)n1 [Example 284, (S)-2-(4-(2-((4-chloro-2-fluorobenzyl)oxy)pyrimidin-4-yl)-2-fluoro-5-methylbenzyl)-1-(4,4-dimethyltetrahydrofuran-3-yl)-1H-benzo[d]imidazole-6-carboxylic acid] | 0.135 |  |
| COc1cc(Cl)ccc1COc1cccc(-c2cc(F)c(Cc3nc4ccc(C(=O)O)cc4n3[C@@H]3COCC3(C)C)cc2F)n1 [Example 462, (S)-2-(4-(6-((4-chloro-2-methoxybenzyl)oxy)pyridin-2-yl)-2,5-difluorobenzyl)-1-(4,4-dimethyltetrahydrofuran-3-yl)-1H-benzo[d]imidazole-6-carboxylic acid] | 0.141 |  |
| COCCn1c(Cc2cc(F)c(-c3cccc(OCc4ccc5c(c4)CN(S(C)(=O)=O)C5)n3)cc2F)nc2c(F)cc(C(=O)O)cc21 [Example 514, 2-(2,5-difluoro-4-(6-((2-(methylsulfonyl)isoindolin-5-yl)methoxy)pyridin-2-yl)benzyl)-4-fluoro-1-(2-methoxyethyl)-1H-benzo[d]imidazole-6-carboxylic acid] | 0.152 |  |
| Cc1ccc(COc2cccc(-c3cc(F)c(Cc4nc5ccc(C(=O)O)cc5n4[C@@H]4COCC4(C)C)cc3F)n2)cc1 [Example 361, (S)-2-(2,5-difluoro-4-(6-((4-methylbenzyl)oxy)pyridin-2-yl)benzyl)-1-(4,4-dimethyltetrahydrofuran-3-yl)-1H-benzo[d]imidazole-6-carboxylic acid] | 0.131 |  |
| COCCn1c(Cc2c(F)cc(-c3cccc(OCc4ccc(C#N)cc4F)n3)c3ncnn23)nc2ccc(C(=O)O)cc21 [Example 53] | 5.11 |  |
| CC1(C)COC[C@H]1n1c(Cc2cc(F)c(-c3cccc(OCc4ccc(C#N)cc4)n3)cc2F)nc2ccc(C(=O)O)nc21 [Example 440, (S)-2-(4-(6-((4-cyanobenzyl)oxy)pyridin-2-yl)-2,5-difluorobenzyl)-3-(4,4-dimethyltetrahydrofuran-3-yl)-3H-imidazo[4,5-b]pyridine-5-carboxylic acid] | 0.956 |  |
| N#Cc1ccc(COc2cccc(-c3cc(F)c(Cc4nc5ccc(C(=O)O)cc5n4[C@@H]4COC[C@@H]4C(F)F)cc3F)n2)c(F)c1 (single isomer, unassigned) [Example 233] | 3.11 |  |
| COCCn1c(Cc2cc(F)c(-c3ccc(F)c(OCc4ccc(C#N)cc4F)n3)cc2F)nc2ccc(C(=O)O)c(F)c21 [Example 125, 2-(4-(6-((4-cyano-2-fluorobenzyl)oxy)-5-fluoropyridin-2-yl)-2,5-difluorobenzyl)-7-fluoro-1-(2-methoxyethyl)-1H-benzo[d]imidazole-6-carboxylic Acid] | 0.112 |  |
| Cc1cn(-c2ccc(COc3cccc(-c4cc(F)c(Cc5nc6ccc(C(=O)O)cc6n5[C@@H]5COCC5(C)C)cc4F)n3)c(F)c2)nn1 [Example 164, (S)-2-(2,5-difluoro-4-(6-((2-fluoro-4-(4-methyl-1H-1,2,3-triazol-1-yl)benzyl)oxy)pyridin-2-yl)benzyl)-1-(4,4-dimethyltetrahydrofuran-3-yl)-1H-benzo[d]imidazole-6-carboxylic Acid] | 0.085 |  |
| CC1(C)COC[C@H]1n1c(Cc2cc(F)c(-c3cccc(OCc4ccc(C#N)cc4F)n3)cc2F)nc2cc(F)c(C(=O)O)cc21 [Example 419, (S)-2-(4-(6-((4-cyano-2-fluorobenzyl)oxy)pyridin-2-yl)-2,5-difluorobenzyl)-1-(4,4-dimethyltetrahydrofuran-3-yl)-5-fluoro-1H-benzo[d]imidazole-6-carboxylic acid] | 0.112 |  |
| CO[C@H](C)Cn1c(Cc2cc(F)c(-c3ccc(F)c(OCc4ccc(C#N)cc4F)n3)cc2F)nc2c(F)cc(C(=O)O)cc21 [Example 368, (R)-2-(4-(6-((4-cyano-2-fluorobenzyl)oxy)-5-fluoropyridin-2-yl)-2,5-difluorobenzyl)-4-fluoro-1-(2-methoxypropyl)-1H-benzo[d]imidazole-6-carboxylic acid] | 0.562 |  |
| COC[C@H]1COC[C@H]1n1c(Cc2cc(F)c(-c3cccc(OCc4ccc(C(F)(F)F)cc4)n3)cc2F)nc2ccc(C(=O)O)cc21 [Example 556, 2-(2,5-difluoro-4-(6-((4-(trifluoromethyl)benzyl)oxy)pyridin-2-yl)benzyl)-1-((3S,4S)-4-(methoxymethyl)tetrahydrofuran-3-yl)-1H-benzo[d]imidazole-6-carboxylic acid] | 0.262 |  |
| N#Cc1ccc(COc2cccc(-c3cc(F)c(Cc4nc5ccc(C(=O)O)cc5n4[C@@H]4COCC45CC5)cc3F)n2)c(F)c1 (single isomer, unassigned) [Example 260] | 0.411 |  |
| C[C@@H]1COC[C@@H]1n1c(Cc2cc(F)c(-c3cccc(OCc4ccc(C#N)cc4F)n3)cc2F)nc2ccc(C(=O)O)cc21 (racemic) [Example 505, 2-(4-(6-((4-cyano-2-fluorobenzyl)oxy)pyridin-2-yl)-2,5-difluorobenzyl)-1-((3R,4S)-4-methyltetrahydrofuran-3-yl)-1H-benzo[d]imidazole-6-carboxylic acid] | 0.043 |  |
| N#Cc1ccc(COc2cccc(-c3cc(F)c(Cc4nc5ccc(C(=O)O)cc5n4[C@@H]4CNC(=O)C4)cc3F)n2)c(F)c1 [Example 2, (S)-2-(4-(6-((4-cyano-2-fluorobenzyl)oxy)pyridin-2-yl)-2,5-difluorobenzyl)-1-(5-oxopyrrolidin-3-yl)-1H-benzo[d]imidazole-6-carboxylic acid] |  | 156 |
| COCCn1c(Cc2c(F)cc(-c3cccc(OCc4cnc(-n5ccnn5)cc4Cl)n3)c(F)c2F)nc2ccc(C(=O)O)cc21 [Example 391, 2-(4-(6-((4-chloro-6-(1H-1,2,3-triazol-1-yl)pyridin-3-yl)methoxy)pyridin-2-yl)-2,3,6-trifluorobenzyl)-1-(2-methoxyethyl)-1H-benzo[d]imidazole-6-carboxylic acid] | 0.107 |  |
